According to patent US12186377B2, “Modulation of oxidative stress and amino acid metabolism for the treatment or prevention of diseases and disorders” (NEW YORK UNIVERSITY, priority 2019, dated 2025):
Entries after “also recorded” stand apart in the source; their conditions may differ. Structures can show the parent of a compound that is named as a salt.

Experiments:
[1] = system: wildtype and Keap1 mutant Kras^G12D/+;p53^−/− lung adenocarcinoma cell lines; test: Cell proliferation assay (crystal violet), drug or amino acid deprived media; type: cell-based, mouse; details: for rescue of cell growth under serine deprived conditions by supplementation: 0.5 mM NAC, 50 μM Trolox, 3 mM formate, 16 μM thymidine, FIG. 7A; for sensitivity of Keap1 wildtype cells to NEAA depletion under oxidant treatment: wildtype cells treated with oxidative stress agents
Method: (§1) For cell proliferation assays conducted under different drug or media conditions as indicated, cells growing in DMEM were trypsinized, counted and plated into 12 well plate dishes (BD/Falcon) in 1 mL of RPMI media. […] For deprivation experiments, cells were washed with PBS and media was replaced with 1 mL of complete RPMI or RPMI lacking indicated amino acid and supplemented with 10% dialyzed FBS and cells were re-treated with indicated drugs. RPMI was prepared from a powder mix without amino acids (US Biological) according to manufacturer's instructions. All other amino acids besides those indicated were added to the RPMI mixture in the same concentrations present in RPMI-1640 formulation (Cellgro, Corning). Proliferation experiments were carried out for 5 days post drug treatment and collected by staining. Cells were stained with a 0.5% crystal violet (Fisher) solution in 20% methanol. Plates were then washed, dried, and crystal violet was eluted in 400 μL of 10% acetic acid.

[2] = system: KPKJ Vector (Keap1 KO) cells transduced with sgG6pd and sgPGD; test: Colony formation assay, metabolite rescue of G6PD KO / PGD KO cells; type: cell-based, mouse; details: FIG. 18
Description: Colony formation assay of KPKJ Vector (Keap1 KO) cells transduced with sgTom, sgG6pd and sgPGD, and rescued with several metabolites.

[3] = system: wildtype vs Keap1 mutant cells; test: GC/MS analysis of polar metabolites and stable isotope tracing in cells; type: cell-based, mouse; details: for serine and glycine synthesis from [U^13C]-D glucose: serine depleted conditions, 250 nM CB-839 or 6 mM glutamate, FIG. 7E
Method: For analysis of cells, 1×10^5 cells were seeded in 1 mL of RPMI-1640 in 12 well plates. […] Media was then replaced with fresh RPMI lacking serine or asparagine where indicated and supplement with 10% FBS. For tracing experiments media contained 11 mM [U^13C]-D-glucose, 2 mM [U^13C]-L-glutamine, 2 mM [α^15N]-L-glutamine, or 285 μM [U^13C]-L-serine (Cambridge Isotope Laboratory). Cells were treated with 250 nM CB-839 and cultured for 1-3 hours. Cells were washed 2× in ice cold saline and then collected by scraping in 250 μL of 80% (v/v) of ice cold methanol containing 1.4 μg/mL norvaline (Sigma Aldrich). Samples were vortexed for 10 min at 4° C. and then centrifuged at max speed for 5 minutes. Supernatant was transferred to fresh tubes and then dried in a speed vac. For analysis of mouse plasma, whole blood was collected at the time of sacrifice by a retro-orbital bleed with heparin coated capillary tubes (Fisher) into EDTA containing microcentrifuge tubes. Whole blood was centrifuged for 5 minutes at 1600 g. Cleared plasma was transferred to fresh tubes and 4 μL of plasma was then aliquoted and used for analysis. 80% (v/v) methanol containing 1.4 μg/mL norvaline was added to plasma and samples were then dried in a speed vac. […] After derivatization, samples were analyzed by GC-MS using an HP-5MS column (Agilent Technologies) in an Agilent Intuvo gas chromatograph coupled to an Agilent 5997B mass spectrometer. […]
The MS system operated under electron impact ionization at 70 eV and the MS source and quadrupole were held at 230° C. and 150° C. respectively the detector was used in scanning mode, and the scanned ion range was 10-650 m/z. Mass isotopomer distributions were determined by integrating the appropriate ion fragments for each metabolite (Lewis et al., 2014, Molecular cell 55, 253-263) using MATLAB (Mathworks) and an algorithm adapted from Fernandez and colleagues (Fernandez et al., 1996, Journal of mass spectrometry: JMS 31, 255-262) that corrects for natural abundance.

KPKJ wt and KPKJ V cells = test: Cell ROS level, DCFCA assay (FACS); type: cell-based, mouse; details: positive control
Method: TET+ stands for 3 days treatment of 1 μg/ml doxycycline for inducing shRNA expression. G6PD knockdown induces more ROS in Keap1 wildtype cells. Keap1 mutants show lower cell ROS. ROS level was measured by DCFCA assay. G6PD KO induces accumulation of ROS in Keap1 wildtype cells. Measured by FACS (DCFCA assay.) TET treatment 4 day before measuring. H2O2 positive control is about 200-fold increase.

[4] = system: wildtype vs Keap1 mutant Kras^G12D/+;p53^−/− lung adenocarcinoma cells; test: Cell viability assay (cell titer glo); type: cell-based, mouse
Method: For cell viability assays cells were plated in a white, opaque 96-well plate with clear bottom at a density of 1000 cells/well in RPMI or RPMI with modified amino acid content. After attachment, CB-839 (Selleck) or L-Asparaginase (AbCam) were added at the indicated concentrations. After 3 days, cell viability in the presence of all compounds was assessed by cell titer glo (Promega).

[5] = system: wildtype subcutaneous tumors; test: Subcutaneous tumor growth, wildtype tumors; type: in vivo, C57B6 mice
Method: (§2) 5×10^5 cells were implanted subcutaneously into C57B6 mice. Tumor volume was measured by caliper and volume was calculated (Length×Width^2×0.5). After tumor establishment phase (tumor volume ˜50 mm^3), animals were randomized and assigned to a treatment group. Animals either received an amino acid control diet, diet lacking both serine and glycine, or a diet lacking asparagine (Envigo and TestDiet), 200 mg/kg CB-839 or vehicle (Calithera) twice daily administered through oral gavage as previously described (Davidson et al., 2016, Cell Metab 23, 517-528), 60 U of L-Asparaginase (Abcam) or vehicle once daily administered through intraperitoneal injection as before (Knott et al., 2018, Nature 554, 378-381) or some treatment combination as indicated.

[6] = system: wildtype vs Keap1 mutant Kras^G12D/+;p53^−/− lung adenocarcinoma cells; details: previously shown (Romero 2017; Sayin 2017); cited from earlier work
[7] = system: Keap1 mutant subcutaneous tumors; test: Subcutaneous tumor growth, Keap1 mutant tumors; type: in vivo, C57B6 mice
Method: as §2

KP or KPK cells = test: Cell viability with exogenous heme/hemin after Alas1 knock-down/out; type: cell-based, mouse
Description: FIG. 36A depicts the cell viability of KP or KPK cells with guide RNAs against Alas1 or control in the presence of increasing amounts of Heme/Hemin.
FIG. 37A depicts a western blot validation of control or Alas1 targeting shRNAs in KP/KPK cells. FIG. 37B depicts the relative viability of KP/KPK cells in response to doxycycline inducible shRNA knockdown of Alas1.

KPK cells = test: Western blot of Alas1 and Hmox1 with exogenous heme/hemin; type: cell-based, mouse; details: increasing amounts of exogenous heme/hemin, FIG. 36B
[8] = GC/MS plasma amino acid levels in tumor-bearing mice; type: in vivo; details: L-asparaginase vs asparagine deficient diet, FIG. 11A
Method: For analysis of cells, 1×10^5 cells were seeded in 1 mL of RPMI-1640 in 12 well plates. […] Media was then replaced with fresh RPMI lacking serine or asparagine where indicated and supplement with 10% FBS. For tracing experiments media contained 11 mM [U^13C]-D-glucose, 2 mM [U^13C]-L-glutamine, 2 mM [α^15N]-L-glutamine, or 285 μM [U^13C]-L-serine (Cambridge Isotope Laboratory). Cells were treated with 250 nM CB-839 and cultured for 1-3 hours. Cells were washed 2× in ice cold saline and then collected by scraping in 250 μL of 80% (v/v) of ice cold methanol containing 1.4 μg/mL norvaline (Sigma Aldrich). Samples were vortexed for 10 min at 4° C. and then centrifuged at max speed for 5 minutes. Supernatant was transferred to fresh tubes and then dried in a speed vac. For analysis of mouse plasma, whole blood was collected at the time of sacrifice by a retro-orbital bleed with heparin coated capillary tubes (Fisher) into EDTA containing microcentrifuge tubes. Whole blood was centrifuged for 5 minutes at 1600 g. Cleared plasma was transferred to fresh tubes and 4 μL of plasma was then aliquoted and used for analysis. […] After derivatization, samples were analyzed by GC-MS using an HP-5MS column (Agilent Technologies) in an Agilent Intuvo gas chromatograph coupled to an Agilent 5997B mass spectrometer. […]

[9] = system: cell lines with different genetic status of Keap1; test: Relative viability in response to succinylacetone; type: cell-based; details: dominant negative Keap1 alleles vs Keap1 mutant cells, FIG. 35B
Description: FIG. 35A depicts a western blot validation of various Keap1 cDNA constructs including WT and multiple mutants found in LUAD. FIG. 35B depicts the relative viability of cell lines with different genetic status of Keap1 in response to different concentrations of succinylacetone, an inhibitor of Alas1.

[10] = system: murine Kras^G12D/+;p53^−/− pancreatic ductal adenocarcinoma cell line; test: Proliferation / viability of pancreatic cancer cell line; type: cell-based, mouse; details: pre-treated with 1 μM KI696; 0.036 U/mL L-asparaginase 3 days, FIG. 5C, 5D
Method: RPMI was prepared from a powder mix without amino acids (US Biological) according to manufacturer's instructions. All other amino acids besides those indicated were added to the RPMI mixture in the same concentrations present in RPMI-1640 formulation (Cellgro, Corning). Proliferation experiments were carried out for 5 days post drug treatment and collected by staining. Cells were stained with a 0.5% crystal violet (Fisher) solution in 20% methanol. Plates were then washed, dried, and crystal violet was eluted in 400 μL of 10% acetic acid.

[11] = system: LKR (Kras^G12D/+;p53^+/+) cell lines; test: Cell proliferation assay in media lacking serine or asparagine, LKR lines; type: cell-based, mouse; details: pre-treated with KI696 (11 μM printed elsewhere in the source), FIG. 5B
Method: as §1

[12] = Davies et al., 2016; cited from earlier work
[13] = 60 U once daily intraperitoneal, FIG. 9B

Cc1c(C)c2c(c(C)c1O)CCC(C)(C(=O)O)O2 (stereo not shown) [Trolox]
rescue of cell growth under serine deprived conditions by supplementation ([1]; Keap1 mutant cells): did not rescue cell growth | G6PD KO rescue (colony formation) [2]: No rescue

CCCCS(=N)(=O)CCC(N)C(=O)O [BSO, L-buthionine-sulfoximine]
sensitivity of Keap1 wildtype cells to NEAA depletion under oxidant treatment [1]: sensitized to NEAA depletion

N[C@@H](CCC(=O)O)C(=O)O [glutamate]
G6PD KO rescue (colony formation) [2]: can rescue G6PD KO cells; also recorded: Completely rescue | intracellular glutamate levels ([3]; Keap1 mutant cells, 500 nM Erastin or 6 mM glutamate, FIG. 6B, 6C): significantly increased intracellular glutamate levels | serine and glycine synthesis from [U^13C]-D glucose [3]: increase in both serine and glycine synthesis

C[C@H](N)C(=O)O [alanine]
proliferation on alanine supplementation ([1]; Keap1 mutant cells, RPMI 10% dialyzed FBS, FIG. 2D): increase in cancer cell proliferation

O=C(O)CCC(=O)C(=O)O [a-KG]
G6PD KO rescue (colony formation) [2]: can rescue G6PD KO cells; also recorded: Completely rescue

CC(=O)OC[C@H]1O[C@@H]([S-])[C@H](OC(C)=O)[C@@H](OC(C)=O)[C@@H]1OC(C)=O.CCP(CC)CC.[Au+] [Auranofin, 3,4,5-triacetyloxy-6-(acetyloxymethyl) oxane-2-thiolate; triethylphosphanium]
sensitivity of Keap1 wildtype cells to NEAA depletion under oxidant treatment [1]: sensitized to NEAA depletion

Cc1cn([C@H]2C[C@H](O)[C@@H](CO)O2)c(=O)[nH]c1=O [thymidine]
rescue of cell growth under serine deprived conditions by supplementation ([1]; Keap1 mutant cells): complete rescue of cell growth

OO [H2O2]
cell ROS level increase (KPKJ wt and KPKJ V cells): about 200 fold

O=C(Cc1cccc(OC(F)(F)F)c1)Nc1ccc(CCCCc2nnc(NC(=O)Cc3ccccn3)s2)nn1 [CB-839]
effect of very low doses of CB-839 alone on cell growth ([4]; CB-839 alone): do not affect cell growth | sensitivity to very low doses of CB-839 with L-asparaginase ([4]; Keap1 mutant cells, 0.1 U/mL L-asparaginase, FIG. 6I): increased sensitivity | sensitivity to very low doses of CB-839 in reduced serine ([4]; Keap1 mutant cells, serine at 10% of normal concentration, FIG. 6J): increased sensitivity | growth of wildtype tumors, CB-839 alone ([5]; 200 mg/kg twice daily oral gavage, FIG. 9F): no effect on wildtype tumor growth | growth of wildtype tumors, CB-839 with −SG diet ([5]; diet lacking serine and glycine, FIG. 9F): strong synergistic effect and significantly reduced wildtype tumor growth; also recorded: strongly sensitizes Keap1 wildtype tumors to dietary restriction of serine and glycine | sensitivity of Keap1 mutant cells to CB-839 [6]: highly sensitive | serine and glycine synthesis from [U^13C]-D glucose [3]: decrease in both serine and glycine synthesis | growth of Keap1 mutant tumors, CB-839 alone ([7]; 200 mg/kg twice daily oral gavage, FIG. 9E): sensitive | growth of Keap1 mutant tumors, CB-839 with −SG diet ([7]; compared to either monotherapy, FIG. 9E): further reduced Keap1 mutant tumor growth

C=CC1=C(C)c2cc3[n-]c(cc4[n-]c(cc5nc(cc1n2)C(C)=C5C=C)c(C)c4CCC(=O)O)c(CCC(=O)O)c3C.[Fe+2] [heme/hemin]
rescue of growth defects after shRNA knockdown of Alas1 (KP or KPK cells; KP/KPK cells, doxycycline inducible shRNA, FIG. 37B): completely rescues any growth defects | exogenous heme needed to rescue growth (KP or KPK cells; Keap1-mutant (KPK) vs KP cells with guide RNAs against Alas1, FIG. 36A): require higher levels of exogenous heme to rescue growth | Alas1 protein level (KPK cells): decrease Alas1 | Hmox1 protein level (KPK cells): increase Hmox1

O=CO [formate]
rescue of cell growth under serine deprived conditions by supplementation ([1]; Keap1 mutant cells): complete rescue of cell growth

CC(=O)N[C@@H](CS)C(=O)O [NAC, N-acetyl-L-cysteine]
rescue of cell growth under serine deprived conditions by supplementation ([1]; Keap1 mutant cells): did not rescue cell growth | G6PD KO rescue (colony formation) [2]: No rescue

L-asparaginase
relative viability on L-asparaginase treatment ([4]; Keap1 mutant vs wildtype cells, RPMI, 3 days, FIG. 1D): increased sensitivity | growth of wildtype tumors, L-asparaginase [5, 13]: not wildtype tumors | plasma levels of asparagine [8]: more effective at reducing plasma levels of asparagine than the asparagine diet | growth of Keap1 mutant tumors, L-asparaginase [7, 13]: blunted growth | growth of Keap1 mutant tumors, L-asparaginase alone or with asparagine free diet ([7]; FIG. 9D): strongly blunts the growth

COC(=O)/C=C/C(=O)OC [DMF, di-methyl fumarate]
sensitivity of Keap1 wildtype cells to NEAA depletion under oxidant treatment [1]: sensitized to NEAA depletion

CC(=O)CC(=O)CCC(=O)O [succinylacetone, 4,6-Dioxoheptanoic acid]
relative viability in response to succinylacetone [9]: further sensitize Keap1 mutant cells to heme synthesis inhibition

COc1cc([C@@H](CC(=O)O)c2ccc(C)c(CN3C[C@@H](C)Oc4ccccc4S3(=O)=O)c2)cc2nnn(C)c12 [KI696]
growth upon serine deprivation or L-asparaginase treatment after Nrf2 activation [10]: robust growth suppression | proliferation in media lacking serine or asparagine, p53 wildtype LKR lines [11]: growth suppression | pharmacokinetics [12]: prevent its efficient use in vivo
